The target of this experiment is T1, Bcl-2 protein (Recombinant Human Bcl-2 Protein) (Homo sapiens, UniProt P10415).
T1 construct: purchased Novus NBP2-34889
In words: Binding evaluation of mixture library compounds to Bcl-2 using AS-MS (affinity selection mass spectrometry). Conditions: AS-MS on the mixture of 1200 library compounds, ASMS Ratio(%)=(A−C)/B×100; for ASMS ratio (%) n = 1: replicate n = 1; for ASMS ratio (%) n = 2: replicate n = 2. The procedure, abridged:
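Affinity selection MS: Bcl-2 20 μM + 1200-cpd mixture, […]/cpd, Tris pH 7.4 buffer w/ Tween-20, DTT; 1 h 23° C dark; P-2 spin SEC; MeCN/MeOH extraction; RP LC/MS. ASMS Ratio(%) = (A−C)/B×100.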

T1 sequence (P10415 whole entry): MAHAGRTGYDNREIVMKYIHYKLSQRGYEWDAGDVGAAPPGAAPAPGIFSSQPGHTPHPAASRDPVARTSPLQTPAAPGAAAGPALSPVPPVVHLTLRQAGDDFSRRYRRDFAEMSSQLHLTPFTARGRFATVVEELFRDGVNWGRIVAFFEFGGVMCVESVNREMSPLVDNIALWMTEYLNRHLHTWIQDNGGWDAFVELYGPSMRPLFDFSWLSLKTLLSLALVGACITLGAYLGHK

As to `CCOc1cccc(-c2ccc(C(=O)N3CCN(c4ccc(C(=O)Nc5ccc(OC)cc5)nn4)CC3)c3ccccc23)c1` [B1O013-01, 6-[4-[4-(3-Ethoxyphenyl)naphthalene-1-carbonyl]piperazin-1-yl]-N-(4-methoxyphenyl)pyridazine-3-carboxamide], the “ASMS ratio (%) n = 1” value amounted to 2.2% and the “ASMS ratio (%) n = 2” value is listed as −4.0%.

As to `CCOc1cncc(-c2ccc(C(=O)N3CCN(c4ccc(C(=O)Nc5ccc(OC)cc5)nn4)CC3)c3ccccc23)c1` [B1O014-01, 6-[4-[4-(5-Ethoxypyridin-3-yl)naphthalene-1-carbonyl]piperazin-1-yl]-N-(4-methoxyphenyl)pyridazine-3-carboxamide], the “ASMS ratio (%) n = 1” value is recorded as 2.5% and the “ASMS ratio (%) n = 2” value is 0.2%.

As to `CCOc1cccc(-c2cc(C(=O)N3CCN(c4ccc(C(=O)Nc5ccc(OC)cc5)nn4)CC3)cc(C(C)(C)C)c2)c1` [B1O015-01, 6-[4-[3-tert-Butyl-5-(3-ethoxyphenyl)benzoyl]piperazin-1-yl]-N-(4-methoxyphenyl)pyridazine-3-carboxamide], the “ASMS ratio (%) n = 1” value was 6.0% and the “ASMS ratio (%) n = 2” value was −2.7%.

With `CCOc1cncc(-c2cc(C(=O)N3CCN(c4ccc(C(=O)Nc5ccc(OC)cc5)nn4)CC3)cc(C(C)(C)C)c2)c1` [B1O016-01, 6-[4-[3-tert-Butyl-5-(5-ethoxypyridin-3-yl)benzoyl]piperazin-1-yl]-N-(4-methoxyphenyl)pyridazine-3-carboxamide], the “ASMS ratio (%) n = 1” value is recorded as 6.6% and the “ASMS ratio (%) n = 2” value was 0.7%.

`CCOc1cccc(-c2cc(C(=O)N3CCN(c4ccc(C(=O)Nc5ccc(OC)cc5)nn4)CC3)cc(C(F)(F)F)c2)c1` [B1O017-01, 6-[4-[3-(3-Ethoxyphenyl)-5-(trifluoromethyl)benzoyl]piperazin-1-yl]-N-(4-methoxyphenyl)pyridazine-3-carboxamide]: the “ASMS ratio (%) n = 1” value came out at 2.5% and the “ASMS ratio (%) n = 2” value came to 0.0%.

For the compound `CCOc1cncc(-c2cc(C(=O)N3CCN(c4ccc(C(=O)Nc5ccc(OC)cc5)nn4)CC3)cc(C(F)(F)F)c2)c1` [B1O018-01, 6-[4-[3-(5-Ethoxypyridin-3-yl)-5-(trifluoromethyl)benzoyl]piperazin-1-yl]-N-(4-methoxyphenyl)pyridazine-3-carboxamide], the “ASMS ratio (%) n = 1” value was found to be 1.0% and the “ASMS ratio (%) n = 2” value is 3.2%.

As for `CCOc1cccc(C#Cc2cc(C(=O)N3CCN(c4ccc(C(=O)Nc5ccc(OC)cc5)nn4)CC3)cc(C(F)(F)F)c2)c1` [B1O019-01, 6-[4-[3-[2-(3-Ethoxyphenyl)ethynyl]-5-(trifluoromethyl)benzoyl]piperazin-1-yl]-N-(4-methoxyphenyl)pyridazine-3-carboxamide], the “ASMS ratio (%) n = 1” value stood at 0.6% and the “ASMS ratio (%) n = 2” value was found to be 0.2%.

As to `CCOc1cncc(C#Cc2cc(C(=O)N3CCN(c4ccc(C(=O)Nc5ccc(OC)cc5)nn4)CC3)cc(C(F)(F)F)c2)c1` [B1O020-01, 6-[4-[3-[2-(5-Ethoxypyridin-3-yl)ethynyl]-5-(trifluoromethyl)benzoyl]piperazin-1-yl]-N-(4-methoxyphenyl)pyridazine-3-carboxamide], the “ASMS ratio (%) n = 1” value is recorded as 8.6% and the “ASMS ratio (%) n = 2” value is −0.5%.

As to `CCOc1cccc(-c2cnn(-c3cc(C(=O)N4CCN(c5ccc(C(=O)Nc6ccc(OC)cc6)nn5)CC4)cc(C(F)(F)F)c3)c2)c1` [B1O021-01, 6-[4-[3-[4-(3-Ethoxyphenyl)pyrazol-1-yl]-5-(trifluoromethyl)benzoyl]piperazin-1-yl]-N-(4-methoxyphenyl)pyridazine-3-carboxamide], the “ASMS ratio (%) n = 1” value is given as 2.9% and the “ASMS ratio (%) n = 2” value is given as −1.2%.

On to `CCOc1cncc(-c2cnn(-c3cc(C(=O)N4CCN(c5ccc(C(=O)Nc6ccc(OC)cc6)nn5)CC4)cc(C(F)(F)F)c3)c2)c1` [B1O022-01, 6-[4-[3-[4-(5-Ethoxypyridin-3-yl)pyrazol-1-yl]-5-(trifluoromethyl)benzoyl]piperazin-1-yl]-N-(4-methoxyphenyl)pyridazine-3-carboxamide], for which the “ASMS ratio (%) n = 1” value was found to be 5.6% and the “ASMS ratio (%) n = 2” value is on record as −1.2%.

As to `CCOc1cccc(-c2csc(C(=O)N3CCN(c4ccc(C(=O)Nc5ccc(OC)cc5)cc4)CC3)c2)c1` [B1O023-01, 4-[4-[4-(3-Ethoxyphenyl)thiophene-2-carbonyl]piperazin-1-yl]-N-(4-methoxyphenyl)benzamide], the “ASMS ratio (%) n = 1” value was determined as 12.4% and the “ASMS ratio (%) n = 2” value is on record as −0.3%.

Turning to `CCOc1cncc(-c2csc(C(=O)N3CCN(c4ccc(C(=O)Nc5ccc(OC)cc5)cc4)CC3)c2)c1` [B1O024-01, 4-[4-[4-(5-Ethoxypyridin-3-yl)thiophene-2-carbonyl]piperazin-1-yl]-N-(4-methoxyphenyl)benzamide], the “ASMS ratio (%) n = 1” value was found to be 3.6% and the “ASMS ratio (%) n = 2” value amounted to 2.3%.

Take `CCOc1cccc(-c2ccc(C(=O)N3CCN(c4ccc(C(=O)Nc5ccc(OC)cc5)cc4)CC3)cc2C)c1` [B1O025-01, 4-[4-[4-(3-Ethoxyphenyl)-3-methylbenzoyl]piperazin-1-yl]-N-(4-methoxyphenyl)benzamide]: the “ASMS ratio (%) n = 1” value is on record as −0.4% and the “ASMS ratio (%) n = 2” value is −4.5%.

Take `CCOc1cncc(-c2ccc(C(=O)N3CCN(c4ccc(C(=O)Nc5ccc(OC)cc5)cc4)CC3)cc2C)c1` [B1O026-01, 4-[4-[4-(5-Ethoxypyridin-3-yl)-3-methylbenzoyl]piperazin-1-yl]-N-(4-methoxyphenyl)benzamide]: the “ASMS ratio (%) n = 1” value is given as 1.7% and the “ASMS ratio (%) n = 2” value is listed as −1.5%.

As for `CCOc1cccc(-c2ccc(C(=O)N3CCN(c4ccc(C(=O)Nc5ccc(OC)cc5)cc4)CC3)cc2F)c1` [B1O027-01, 4-[4-[4-(3-Ethoxyphenyl)-3-fluorobenzoyl]piperazin-1-yl]-N-(4-methoxyphenyl)benzamide], the “ASMS ratio (%) n = 1” value is listed as 3.8% and the “ASMS ratio (%) n = 2” value came to 2.1%.

For the compound `CCOc1cncc(-c2ccc(C(=O)N3CCN(c4ccc(C(=O)Nc5ccc(OC)cc5)cc4)CC3)cc2F)c1` [B1O028-01, 4-[4-[4-(5-Ethoxypyridin-3-yl)-3-fluorobenzoyl]piperazin-1-yl]-N-(4-methoxyphenyl)benzamide], the “ASMS ratio (%) n = 1” value was found to be 4.9% and the “ASMS ratio (%) n = 2” value is listed as 0.4%.

For the compound `CCOc1cccc(C#Cc2ccccc2C(=O)N2CCN(c3ccc(C(=O)Nc4ccc(OC)cc4)cc3)CC2)c1` [B1O029-01, 4-[4-[2-[2-(3-Ethoxyphenyl)ethynyl]benzoyl]piperazin-1-yl]-N-(4-methoxyphenyl)benzamide], the “ASMS ratio (%) n = 1” value came to 0.0% and the “ASMS ratio (%) n = 2” value is 0.0%.

On to `CCOc1cncc(C#Cc2ccccc2C(=O)N2CCN(c3ccc(C(=O)Nc4ccc(OC)cc4)cc3)CC2)c1` [B1O030-01, 4-[4-[2-[2-(5-Ethoxypyridin-3-yl)ethynyl]benzoyl]piperazin-1-yl]-N-(4-methoxyphenyl)benzamide], for which the “ASMS ratio (%) n = 1” value is 1.8% and the “ASMS ratio (%) n = 2” value is −2.0%.

Consider `CCOc1cccc(C#Cc2cncc(C(=O)N3CCN(c4ccc(C(=O)Nc5ccc(OC)cc5)cc4)CC3)c2)c1` [B1O031-01, 4-[4-[5-[2-(3-Ethoxyphenyl)ethynyl]pyridine-3-carbonyl]piperazin-1-yl]-N-(4-methoxyphenyl)benzamide], for which the “ASMS ratio (%) n = 1” value is −1.3% and the “ASMS ratio (%) n = 2” value was −4.1%.

For `CCOc1cncc(C#Cc2cncc(C(=O)N3CCN(c4ccc(C(=O)Nc5ccc(OC)cc5)cc4)CC3)c2)c1` [B1O032-01, 4-[4-[5-[2-(5-Ethoxypyridin-3-yl)ethynyl]pyridine-3-carbonyl]piperazin-1-yl]-N-(4-methoxyphenyl)benzamide], the “ASMS ratio (%) n = 1” value was determined as 4.5% and the “ASMS ratio (%) n = 2” value came out at 0.9%.

With `CCOc1cccc(-c2ccccc2CCC(=O)N2CCN(c3ccc(C(=O)Nc4ccc(OC)cc4)cc3)CC2)c1` [B1O033-01, 4-[4-[3-[2-(3-Ethoxyphenyl)phenyl]propanoyl]piperazin-1-yl]-N-(4-methoxyphenyl)benzamide], the “ASMS ratio (%) n = 1” value is listed as 1.9% and the “ASMS ratio (%) n = 2” value is listed as 4.2%.

Regarding `CCOc1cncc(-c2ccccc2CCC(=O)N2CCN(c3ccc(C(=O)Nc4ccc(OC)cc4)cc3)CC2)c1` [B1O034-01, 4-[4-[3-[2-(5-Ethoxypyridin-3-yl)phenyl]propanoyl]piperazin-1-yl]-N-(4-methoxyphenyl)benzamide], the “ASMS ratio (%) n = 1” value is recorded as 0.1% and the “ASMS ratio (%) n = 2” value turned out to be 0.2%.

Regarding `CCOc1cccc(-c2ccc(C(=O)N3CCN(c4ccc(C(=O)Nc5ccc(OC)cc5)cc4)CC3)c3ccccc23)c1` [B1O035-01, 4-[4-[4-(3-Ethoxyphenyl)naphthalene-1-carbonyl]piperazin-1-yl]-N-(4-methoxyphenyl)benzamide], the “ASMS ratio (%) n = 1” value is on record as 4.3% and the “ASMS ratio (%) n = 2” value was −3.7%.

Regarding `CCOc1cncc(-c2ccc(C(=O)N3CCN(c4ccc(C(=O)Nc5ccc(OC)cc5)cc4)CC3)c3ccccc23)c1` [B1O036-01, 4-[4-[4-(5-Ethoxypyridin-3-yl)naphthalene-1-carbonyl]piperazin-1-yl]-N-(4-methoxyphenyl)benzamide], the “ASMS ratio (%) n = 1” value was 4.8% and the “ASMS ratio (%) n = 2” value is given as 0.9%.

Turning to `CCOc1cccc(-c2cc(C(=O)N3CCN(c4ccc(C(=O)Nc5ccc(OC)cc5)cc4)CC3)cc(C(C)(C)C)c2)c1` [B1O037-01, 4-[4-[3-tert-Butyl-5-(3-ethoxyphenyl)benzoyl]piperazin-1-yl]-N-(4-methoxyphenyl)benzamide], the “ASMS ratio (%) n = 1” value was found to be 4.7% and the “ASMS ratio (%) n = 2” value is −1.7%.

Source of the values: US20240132431A1, “METHOD FOR ALKYLATING ACIDIC FUNCTIONAL GROUP” (Chugai Seiyaku Kabushiki Kaisha, priority 2021, published 2024).
